In the assay the target is ERα (Homo sapiens, UniProt P03372). Description: competitive radiometric binding assay with tritiated estradiol.

The source of these data is PMC2787200 (Organic letters, 2008).

Broadly, the Ki is the dissociation constant of the complex between target and ligand, obtained from inhibition or displacement. Low values mean higher affinity, high ones lower affinity.

Chain of ERα (P03372 whole entry): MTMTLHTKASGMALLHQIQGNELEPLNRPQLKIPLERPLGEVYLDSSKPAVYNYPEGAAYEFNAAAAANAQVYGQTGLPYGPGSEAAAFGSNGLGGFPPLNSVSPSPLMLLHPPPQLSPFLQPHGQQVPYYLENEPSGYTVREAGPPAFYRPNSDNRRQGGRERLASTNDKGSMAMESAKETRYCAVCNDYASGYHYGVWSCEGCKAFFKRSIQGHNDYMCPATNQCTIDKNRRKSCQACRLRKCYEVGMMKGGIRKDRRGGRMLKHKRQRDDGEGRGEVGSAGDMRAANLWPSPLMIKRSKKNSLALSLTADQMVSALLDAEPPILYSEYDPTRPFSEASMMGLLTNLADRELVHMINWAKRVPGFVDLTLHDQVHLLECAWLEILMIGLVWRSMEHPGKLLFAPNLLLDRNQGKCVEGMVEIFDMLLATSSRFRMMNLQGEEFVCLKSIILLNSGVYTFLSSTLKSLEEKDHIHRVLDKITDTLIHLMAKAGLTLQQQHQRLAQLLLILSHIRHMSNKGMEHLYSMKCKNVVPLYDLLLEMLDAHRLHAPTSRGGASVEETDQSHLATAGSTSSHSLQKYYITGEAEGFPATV

Regarding “Cyclofenil-conjugated SNAPFL [compound 2]”, the Ki is roughly 6 nM.
